Laboratory results taken from patent US8853219B2, “Compounds and compositions for cognition-enhancement, methods of making, and methods of treating” (NeuroSolis, Inc., priority 2010, dated 2014).

Columns and labels:
[1] = system: pooled male human liver microsomes; experiment: Metabolism by human liver microsomes; type: in vitro ADME; details: 6 hours incubation
Procedure: (§1) Compounds were incubated with pooled male human liver microsomes (BD Biosciences, #452172) and an NADP-regenerating system in a phosphate buffer (pH 7.4) for a total of 6 hours. Aliquots were removed every 2 hours, and 1% formic acid was added to halt the reaction. Samples were centrifuged, filtered through 0.2 micron spinfilter and the amount of each compound in the supernatants was quantitated using LC/MS/MS.

[2] = system: pooled male Sprague-Dawley rat liver microsomes; experiment: Metabolism by rat liver microsomes; type: in vitro ADME; details: 6 hours incubation
Procedure: as §1, with “Sprague-Dawley rat” for “human”, “#452501)” for “#452172)”

[3] = biological target: T1, human muscarinic M1 receptors (Homo sapiens, UniProt P11229); experiment: Stimulation of inositol phosphate production in A9L cells, human M1 (IPOne TR-FRET); type: cell-based; details: huM1/A9L versus huM3/A9L
T1 construct: host or cells: A9L cells
T1 sequence (P11229 1-460): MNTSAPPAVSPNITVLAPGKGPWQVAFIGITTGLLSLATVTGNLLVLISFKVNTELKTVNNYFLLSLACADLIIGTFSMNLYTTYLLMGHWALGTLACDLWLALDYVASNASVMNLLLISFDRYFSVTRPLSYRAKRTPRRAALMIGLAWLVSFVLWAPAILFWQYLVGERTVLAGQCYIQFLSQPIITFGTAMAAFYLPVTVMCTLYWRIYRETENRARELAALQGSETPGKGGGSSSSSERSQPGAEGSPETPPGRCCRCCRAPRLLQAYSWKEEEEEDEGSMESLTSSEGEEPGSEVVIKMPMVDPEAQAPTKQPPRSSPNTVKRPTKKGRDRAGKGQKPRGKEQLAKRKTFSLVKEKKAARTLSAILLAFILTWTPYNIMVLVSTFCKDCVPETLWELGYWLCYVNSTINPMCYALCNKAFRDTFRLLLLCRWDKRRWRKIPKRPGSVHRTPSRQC

[4] = Delivery of MCD-386 in rats by iontophoresis patch versus oral gavage: plasma concentration; type: in vivo; details: rat
Procedure: Two patches were made up, consisting (in order from the outer layer to the skin contacting surface, respectively): adhesive tape (Transpore, 27 mm wide, 3M), circular stainless steel electrodes (22 mm dia) with a central hole for a stainless steel machine screw to which the electrode wire was attached, and 2 layers of 3mM CHR filter paper (Cat #3030-861, Whatman International, Ltd).
The mid-dorsal area of a Long Evans Hooded rat (approximate weight, 320 grams), surgically prepared with a jugular vein catheter (Charles River), was shaved and the skin was then cleaned using an Electrode Prep Pad (Professional Disposables, Inc, Cat #B59800). […]
Blood (400 μl) was withdrawn from the catheters in each rat every 30 minutes, transferred to 1.5 ml centrifuge tubes containing heparin (15 units/tube), and the plasma was separated by centrifugation from the cellular components. The plasma samples were maintained at 4 deg C. until analyzed. […]
The ultra-filtrates were subjected to reverse-phase liquid chromatography using a 150×2.1 mm Agilent C8 reverse-phase column on a Shimadzu Prominence LC, eluting the MCD-386 with an isocratic flow of 2% acetonitrile+0.1% formic acid. The concentration of MCD-386 in the column effluent was measured using an Applied Biosystems API-3200 triple quadrupole mass spectrometer equipped with a Turbo V source (electrospray sample injection) system. […]

[5] = Blood and brain concentrations (rats) after oral gavage; type: in vivo, rat; details: rat brain, 10 mg/kg po, 1 hr, relative to MCD-386
Procedure: Long-Evans Hooded rats (Charles River: male, 250-350 g) were dosed with solutions of test compounds in PBS by oral gavage. At the desired time after dosing, the animals were anesthetized with isoflurane, and then euthanized by cervical dislocation. Blood was obtained by cardiac puncture, transferred to a 1.5 mL microcentrifuge tube containing 15U Heparin, and the plasma recovered after centrifugation. Brains were dissected, weighed, immediately chilled to 4° C., and homogenized using a PowerGen 125 homogenizer in five volumes of ice-cold 2% formic acid. Proteins were precipitated from plasma and brain homogenate with two and five volumes respectively of ice-cold 2% formic acid and clarified by centrifugation. The supernatant was ultra-filtered by centrifugation through a 3K MWCO spin column (Pall Life Sciences), following the manufacturer's instructions. The concentration of compound in the ultra-filtrate was subjected to reverse-phase liquid chromatography using a 150×2.1 mm Agilent C8 reverse-phase column on a Shimadzu Prominence LC, eluting the compounds with a gradient of 2% to 50% of acetonitrile+0.1% formic acid for compound MI-50,382, or an isocratic flow of 2% acetonitrile+0.1% formic acid for the rest of the compounds listed. The concentration of the compound in the column effluent was measured using an Applied Biosystems API-3200 triple quadrupole mass spectrometer equipped with an electrospray sample injection system. The counts of the characteristic parent and product ions of each test compound were converted to concentration units by comparison with a standard calibration curve.

Row | Compound | PAMPA units (PAMPA test) | Metabolism in human liver microsomes [1] | Metabolism in rat liver microsomes [2] | Selectivity for M1 versus M3 receptors [3] | Bioavailability by transdermal delivery versus oral administration [4] | Brain Cmax (10 mg/kg po) 1 hr MCD-386 = 1.00 [5]
1 | Cc1noc(C2=CCCN(C)C2)n1 [Compound 36, 3-methyl-5-(1-methyl-1,2,5,6-tetrahydropyridin-3-yl)-1,2,4-oxadiazole, reference compound] | 12.75 | nearly completely metabolized | nearly completely metabolized | some selectivity for M1 versus M3 receptors |  | 
2 | CCc1noc(C2CN=CNC2)n1 (stereo not shown) [MCD-386, 5-(3-ethyl-1,2,4-oxadiazol-5-yl)-1,4,5,6-tetrahydropyrimidine] | 0.05 |  |  |  | up to three times higher | 1.00
